# Literature values, collected in PubChem BioAssay AID1259409 (Chemical Carcinogenesis Research Information System (CCRIS), 2018).
# System: rodent chemically induced tumor inhibition, incidence and multiplicity
# Assay: CCRIS tumor inhibitor studies
smiles,measurement,setting,value
NCCCC(N)(C(=O)O)C(F)F (centres undefined),"tumour outcome (control, treated, inhibition, significance)","Carcinogen: N-ETHYL-N-NITROSOUREA, 759-73-9, Dose [Inhibitor]: 0, 500 MG/KG DIET FOR DURATION OF STUDY BEGINNING POST CARCINOGEN DOSE (STUDY DURATION: 35 WK), Route [Inhibitor]: ORAL, Species: MOUSE, Strain/Sex: PIM/MALE, Target Tissue: Type of Lesion: LYMPHATIC SYSTEM: LYMPHOMA, Dose [Carcinogen]: 50 MG/KG BW ONCE, Promoter: NONE USED","21/40 (53%), 9/28 (32%), 40%, not significant"
same,"tumour outcome (control, treated, inhibition, significance)","Carcinogen: N-ETHYL-N-NITROSOUREA, 759-73-9, Dose [Inhibitor]: 0, 1000 MG/KG DIET FOR DURATION OF STUDY BEGINNING POST CARCINOGEN DOSE (STUDY DURATION: 35 WK), Route [Inhibitor]: ORAL, Species: MOUSE, Strain/Sex: PIM/MALE, Target Tissue: Type of Lesion: LYMPHATIC SYSTEM: LYMPHOMA, Dose [Carcinogen]: 50 MG/KG BW ONCE, Promoter: NONE USED","21/40 (53%), 16/40 (40%), 26%, not significant"
same,"tumour outcome (control, treated, inhibition, significance)","Carcinogen: N-METHYL-N'-NITRO-N-NITROSOGUANIDINE, 70-25-7, Dose [Inhibitor]: 0, 0.5% IN DRINKING WATER ADMINISTERED CONCURRENTLY WITH CARCINOGEN FOR 35 WK (STUDY DURATION: 85 WK), Route [Inhibitor]: ORAL, Species: RAT, Strain/Sex: WISTAR/MALE, Target Tissue: Type of Lesion: DUODENUM: TUMOR, Dose [Carcinogen]: 2.5 MG IN DRINKING WATER FOR 35 WK, Promoter: NONE USED","4/22 (18%), 9/25 (36%), -100%, not significant"
same,"tumour outcome (control, treated, inhibition, significance)","Carcinogen: N-METHYL-N'-NITRO-N-NITROSOGUANIDINE, 70-25-7, Dose [Inhibitor]: 0, 0.5% IN DRINKING WATER ADMINISTERED CONCURRENTLY WITH CARCINOGEN FOR 35 WK (STUDY DURATION: 85 WK), Route [Inhibitor]: ORAL, Species: RAT, Strain/Sex: WISTAR/MALE, Target Tissue: Type of Lesion: STOMACH: ADENOCARCINOMA, Dose [Carcinogen]: 2.5 MG IN DRINKING WATER FOR 35 WK, Promoter: NONE USED","12/22 (55%), 3/25 (12%), 78%, p<0.005"
same,"tumour outcome (control, treated, inhibition, significance)","Carcinogen: N-METHYL-N'-NITRO-N-NITROSOGUANIDINE, 70-25-7, Dose [Inhibitor]: 0, 0.5% IN DRINKING WATER ADMINISTERED CONCURRENTLY WITH CARCINOGEN FOR 35 WK (STUDY DURATION: 85 WK), Route [Inhibitor]: ORAL, Species: RAT, Strain/Sex: WISTAR/MALE, Target Tissue: Type of Lesion: STOMACH: ADENOMA, Dose [Carcinogen]: 2.5 MG IN DRINKING WATER FOR 35 WK, Promoter: NONE USED","5/22 (23%), 4/25 (16%), 30%, not significant"
same,"tumour outcome (control, treated, inhibition, significance)","Carcinogen: N-METHYL-N'-NITRO-N-NITROSOGUANIDINE, 70-25-7, Dose [Inhibitor]: 0, 0.5% IN DRINKING WATER ADMINISTERED CONCURRENTLY WITH CARCINOGEN FOR 35 WK (STUDY DURATION: 85 WK), Route [Inhibitor]: ORAL, Species: RAT, Strain/Sex: WISTAR/MALE, Target Tissue: Type of Lesion: STOMACH: SARCOMA, Dose [Carcinogen]: 2.5 MG IN DRINKING WATER FOR 35 WK, Promoter: NONE USED","2/22 (9%), 0/25 (0%), 100%, not significant"
same,"tumour outcome (control, treated, inhibition, significance)","Carcinogen: N-METHYL-N'-NITRO-N-NITROSOGUANIDINE, 70-25-7, Dose [Inhibitor]: 0, 1% IN DRINKING WATER ADMINISTERED CONCURRENTLY WITH CARCINOGEN FOR 35 WK (STUDY DURATION: 85 WK), Route [Inhibitor]: ORAL, Species: RAT, Strain/Sex: WISTAR/MALE, Target Tissue: Type of Lesion: DUODENUM: TUMOR, Dose [Carcinogen]: 2.5 MG IN DRINKING WATER FOR 35 WK, Promoter: NONE USED","4/22 (18%), 9/25 (36%), -100%, not significant"
same,"tumour outcome (control, treated, inhibition, significance)","Carcinogen: N-METHYL-N'-NITRO-N-NITROSOGUANIDINE, 70-25-7, Dose [Inhibitor]: 0, 1% IN DRINKING WATER ADMINISTERED CONCURRENTLY WITH CARCINOGEN FOR 35 WK (STUDY DURATION: 85 WK), Route [Inhibitor]: ORAL, Species: RAT, Strain/Sex: WISTAR/MALE, Target Tissue: Type of Lesion: STOMACH: ADENOCARCINOMA, Dose [Carcinogen]: 2.5 MG IN DRINKING WATER FOR 35 WK, Promoter: NONE USED","12/22 (55%), 5/25 (20%), 64%, p<0.05"
same,"tumour outcome (control, treated, inhibition, significance)","Carcinogen: N-METHYL-N'-NITRO-N-NITROSOGUANIDINE, 70-25-7, Dose [Inhibitor]: 0, 1% IN DRINKING WATER ADMINISTERED CONCURRENTLY WITH CARCINOGEN FOR 35 WK (STUDY DURATION: 85 WK), Route [Inhibitor]: ORAL, Species: RAT, Strain/Sex: WISTAR/MALE, Target Tissue: Type of Lesion: STOMACH: ADENOMA, Dose [Carcinogen]: 2.5 MG IN DRINKING WATER FOR 35 WK, Promoter: NONE USED","5/22 (23%), 3/25 (12%), 48%, not significant"
same,"tumour outcome (control, treated, inhibition, significance)","Carcinogen: N-METHYL-N'-NITRO-N-NITROSOGUANIDINE, 70-25-7, Dose [Inhibitor]: 0, 1% IN DRINKING WATER ADMINISTERED CONCURRENTLY WITH CARCINOGEN FOR 35 WK (STUDY DURATION: 85 WK), Route [Inhibitor]: ORAL, Species: RAT, Strain/Sex: WISTAR/MALE, Target Tissue: Type of Lesion: STOMACH: SARCOMA, Dose [Carcinogen]: 2.5 MG IN DRINKING WATER FOR 35 WK, Promoter: NONE USED","2/22 (9%), 3/25 (12%), -33%, not significant"
same,"tumour outcome (control, treated, inhibition, significance)","Carcinogen: N-METHYL-N-BENZYLNITROSAMINE, 937-40-6, Dose [Inhibitor]: 0, 1% IN DEIONIZED WATER WITH ZINC-DEFICIENT DIET FOR 15 WK STARTING 1 HR POST CARCINOGEN TREATMENT (STUDY DURATION: 20, Route [Inhibitor]: ORAL, Species: RAT, Strain/Sex: SPRAGUE-DAWLEY/MALE, Target Tissue: Type of Lesion: ESOPHAGUS: TUMOR, Dose [Carcinogen]: 2 MG/KG BW ONCE ADMINISTERED AFTER 5 WK OF ZINC-DEFICIENT DIET TREATMENT","89% (8/9), 10% (2/20), 89%, p<0.0001"
same,"tumour outcome (control, treated, inhibition, significance)","Carcinogen: N-METHYL-N-NITROSOUREA, 684-93-5, Dose [Inhibitor]: 0, 0.5 IN 2% NORMAL URINE INTO HETEROTOPICALLY TRANSPLANTED BLADDER 2/WK FOR 22 WK BEGINNING 1 WK POST CARCINOGEN (STUDY, Route [Inhibitor]: INJECTION, Species: RAT, Strain/Sex: F344/MALE, Target Tissue: Type of Lesion: BLADDER: TRANSITIONAL CELL CARCINOMA, Dose [Carcinogen]: 0.25 MG IN 0.9% SALINE 1/WK FOR 3 WK INTO BLADDER 4 WK AFTER HETEROTOPIC TRANSPLANT INTO GLUTEAL MUSCLE","31/38 (82%), 5/37 (16%), 80%, p<0.001"
same,"tumour outcome (control, treated, inhibition, significance)","Carcinogen: N-METHYL-N-NITROSOUREA, 684-93-5, Dose [Inhibitor]: 0, 0.5 IN 2% NORMAL URINE INTO HETEROTOPICALLY TRANSPLANTED BLADDER 2/WK FOR 29 WK BEGINNING 1 WK POST CARCINOGEN (STUDY, Route [Inhibitor]: INJECTION, Species: RAT, Strain/Sex: F344/MALE, Target Tissue: Type of Lesion: BLADDER: TRANSITIONAL CELL CARCINOMA, Dose [Carcinogen]: 0.25 MG IN 0.9% SALINE ONCE INTO BLADDER 4 WK AFTER HETEROTOPIC TRANSPLANT INTO GLUTEAL MUSCLE","15/35 (43%), 3/34 (9%), 79%, p<0.005"
same,"tumour outcome (control, treated, inhibition, significance)","Carcinogen: N-METHYL-N-NITROSOUREA, 684-93-5, Dose [Inhibitor]: 0.5 ML OF 2% AGENT IN 0.9% SALINE SOLUTION TWICE IN WK 1 THEN ONCE 2 HR POST CARCINOGEN DOSE THEN TWICE IN WEEK 2 (STUDY, Route [Inhibitor]: INTRAVESICAL, Species: RAT, Strain/Sex: F344/MALE, Target Tissue: Type of Lesion: BLADDER: CARCINOMA, Dose [Carcinogen]: 0.25 MG IN 0.5 ML OF 0.9% SALINE SOLUTION ONCE, Promoter: URINE","25/36 (69%), 25/37 (68%), 1%, not calculated"
